Experimental data taken from patent US9676715B2, “Bis-indolic derivatives, a process for preparing the same and their uses as a drug” (UNIVERSITE JOSEPH FOURIER, priority 2011, dated 2017).
Converted amounts (≈) assume the structure as drawn.

Tests used:
S. epidermidis CIP 81.55 = assay: MIC, microdilution method (9.1); assay type: cell-based, Staphylococcus epidermidis; conditions: Staphylococcus epidermidis, CIP81, read after 18 h, read-out: MIC
Experimental: (§1) The microdilution method recommended by the Clinical and Laboratory Standard Institute [M07-A8, Vol. 29, No. 2] was used. The activity of indolic compounds was tested against 29 bacterial strains belonging to 17 different species and 12 different genera (Staphylococcus, Streptococcus, Enterococcus, Listeria, Bacillus, Haemophilus, Escherichia, Klebsiella, Enterobacter, Serratia, Pseudomonas, and Acinetobacter). Bacterial inocula were prepared in Mueller Hinton broth (MH2, bioMérieux, Marcy L'Etoile, France), supplemented with 10% sheep blood for fastidious species (i.e., Streptococcus pneumoniae and Haemophilus influenzae). They were dispensed in 96 well microtiter plates (5×10^5 CFU/ml of final inoculum). Indolic compounds were added to the wells as to obtain two-fold serial concentrations (0.50-128 mg/L of final concentrations). Plates were incubated at 37° C. in ambient air, or at 37° C. in 5% CO2 enriched atmosphere for fastidious species. […] Drug-free cultures served as growth controls. Cultures receiving gentamicin, ciprofloxacin or cefotaxime served as positive controls.

[1] = system: S. epidermidis ATCC 12228; assay: MIC, microdilution method (9.1); assay type: cell-based, Staphylococcus epidermidis; conditions: Staphylococcus epidermidis, ATCC12228, read after 18 h, read-out: MIC
Experimental: as §1

[2] = system: S. epidermidis CIP 103627; assay: MIC, microdilution method (9.1); assay type: cell-based, Staphylococcus epidermidis; conditions: Staphylococcus epidermidis, CIP103627, read after 18 h, read-out: MIC
Experimental: as §1

S. aureus CIP 65.6 = assay: MIC, microdilution method (9.1); assay type: cell-based, Staphylococcus aureus; conditions: Staphylococcus aureus, CIP65, read after 18 h, read-out: MIC
Experimental: as §1

S. aureus CIP 103428 = assay: MIC, microdilution method (9.1); assay type: cell-based, Staphylococcus aureus; conditions: Staphylococcus aureus, CIP103428, read after 18 h, read-out: MIC
Experimental: as §1

[3] = system: S. aureus CIP 65.25 (MRSA); assay: MIC, microdilution method (9.1); assay type: cell-based, Staphylococcus aureus; conditions: Staphylococcus aureus, read after 18 h, read-out: MIC
Experimental: as §1

S. aureus SA-1199B = assay: MIC, microdilution method (9.1); assay type: cell-based, Staphylococcus aureus; conditions: Staphylococcus aureus, SA1199B, 18 h
Experimental: as §1

[4] = system: S. aureus ATCC 106414 (VISA); assay: MIC, microdilution method (9.1); assay type: cell-based, Staphylococcus aureus; conditions: Staphylococcus aureus, read after 18 h, read-out: MIC
Experimental: as §1

[5] = system: S. aureus ATCC 33592 (MRSA); assay: MIC, microdilution method (9.1); assay type: cell-based, Staphylococcus aureus; conditions: Staphylococcus aureus, read after 18 h, read-out: MIC
Experimental: as §1

S. aureus ATCC 29213 = assay: MIC, microdilution method (9.1); assay type: cell-based, Staphylococcus aureus; conditions: Staphylococcus aureus, ATCC29213, read after 18 h, read-out: MIC
Experimental: as §1

S. aureus ATCC 25923 = assay: MIC, microdilution method (9.1); assay type: cell-based, Staphylococcus aureus; conditions: Staphylococcus aureus, ATCC25923, read after 18 h, read-out: MIC
Experimental: as §1

S. aureus ATCC 6538 = assay: MIC, microdilution method (9.1); assay type: cell-based, Staphylococcus aureus; conditions: Staphylococcus aureus, ATCC6538, read after 18 h, read-out: MIC
Experimental: as §1

S. aureus ATCC 9144 = assay: MIC, microdilution method (9.1); assay type: cell-based, Staphylococcus aureus; conditions: Staphylococcus aureus, ATCC9144, read after 18 h, read-out: MIC
Experimental: as §1

[6] = system: KB (human mouth carcinoma); assay: In vitro cytotoxicity; assay type: cell-based; conditions: read-out: % of cellular growth inhibition; for inhibition at 10 µM: 10^−5 M; for inhibition at 1 µM: 10^−6 M
Experimental: (§2) In vitro cytotoxicity was assayed on three cell lines—KB (human mouth carcinoma), MCR5 (human lung fibroblast) and HCT116 (human colon tumor). Results are presented in table IV as % of cellular growth inhibition in presence of 10^−5 M and 10^−6 M of the tested bis-indolic derivatives.

[7] = system: MRC5 (human lung fibroblast); assay: In vitro cytotoxicity; assay type: cell-based; conditions: read-out: % of cellular growth inhibition; for inhibition at 10 µM: 10^−5 M; for inhibition at 1 µM: 10^−6 M
Experimental: as §2

[8] = system: HCT116 (human colon tumor); assay: In vitro cytotoxicity; assay type: cell-based; conditions: read-out: % of cellular growth inhibition; for inhibition at 10 µM: HCT-116, 10^−5 M; for inhibition at 1 µM: HCT-116, 10^−6 M
Experimental: as §2

S. pneumoniae ATCC 6303 = assay: MIC, microdilution method (9.1); assay type: cell-based, Streptococcus pneumoniae; conditions: Streptococcus pneumoniae, ATCC6303, 10% sheep blood, 5% CO2, 18 h, read-out: MIC
Experimental: as §1

E. faecium CIP 54.32 = assay: MIC, microdilution method (9.1); assay type: cell-based, Enterococcus faecium; conditions: Enterococcus faecium, CIP54, 18 h, read-out: MIC
Experimental: as §1

[9] = system: S. pyogenes (group A) CIP 104226; assay: MIC, microdilution method (9.1); assay type: cell-based, Streptococcus pyogenes; conditions: Streptococcus pyogenes, CIP104226, 18 h, read-out: MIC
Experimental: as §1

S. mitis CIP 103335 = assay: MIC, microdilution method (9.1); assay type: cell-based, Streptococcus mitis; conditions: Streptococcus mitis, CIP103335, 18 h, read-out: MIC
Experimental: as §1

E. faecalis ATCC 29212 = assay: MIC, microdilution method (9.1); assay type: cell-based, Enterococcus faecalis; conditions: Enterococcus faecalis, ATCC29212, 18 h, read-out: MIC
Experimental: as §1

[10] = system: S. agalactiae (group B) ATCC 12400; assay: MIC, microdilution method (9.1); assay type: cell-based, Streptococcus agalactiae; conditions: Streptococcus agalactiae, ATCC12400, 18 h, read-out: MIC
Experimental: as §1

[11] = system: Klebsiella pneumoniae API ATCC 35657; assay: MIC, microdilution method (9.1); assay type: cell-based; conditions: ATCC35657, 18 h, read-out: MIC
Experimental: as §1

[12] = system: Pseudomonas aeruginosa CIP 5933; assay: MIC, microdilution method (9.1); assay type: cell-based; conditions: CIP5933, 18 h, read-out: MIC
Experimental: as §1

[13] = system: Escherichia coli ATCC 25922; assay: MIC, microdilution method (9.1); assay type: cell-based; conditions: ATCC25922, 18 h
Experimental: as §1

[14] = system: Listeria innocua CIP 80.11; assay: MIC, microdilution method (9.1); assay type: cell-based; conditions: CIP80, 18 h, read-out: MIC
Experimental: as §1

[15] = system: Bacillus subtilis CIP 5262; assay: MIC, microdilution method (9.1); assay type: cell-based; conditions: CIP5262, 18 h, read-out: MIC
Experimental: as §1

[16] = system: Acinetobacter baumanii ATCC 19606; assay: MIC, microdilution method (9.1); assay type: cell-based; conditions: Acinetobacter baumannii, ATCC19606, 18 h, read-out: MIC
Experimental: as §1

S. pneumoniae ATCC 49619 = assay: MIC, microdilution method (9.1); assay type: cell-based; conditions: Streptococcus pneumoniae, ATCC49619, 10% sheep blood, 5% CO2, 18 h
Experimental: as §1

[17] = system: Enterobacter cloacae ATCC13047; assay: MIC, microdilution method (9.1); assay type: cell-based; conditions: 18 h
Experimental: as §1

[18] = system: Haemophilus influenzae ATCC 49766; assay: MIC, microdilution method (9.1); assay type: cell-based; conditions: ATCC49766; Haemophilus influenzae ATCC 49766; 10% sheep blood, 5% CO2; 18 h; read-out: MIC
Experimental: as §1

[19] = system: Serratia marcescens CIP 103551; assay: MIC, microdilution method (9.1); assay type: cell-based; conditions: CIP103551, 18 h
Experimental: as §1

[20] = system: HCT116 (human colon tumor); assay: In vitro cytotoxicity; assay type: cell-based; conditions: HCT-116, HCT116, from 100 μM to 0.005 μM in DMSO, duplicate

SMILES	MIC (S. epidermidis CIP 81.55) [µg/mL]	MIC [1] [µg/mL]	MIC [2] [µg/mL]	MIC (S. aureus CIP 65.6) [µg/mL]	MIC (S. aureus CIP 103428) [µg/mL]	MIC [3] [µg/mL]	MIC (S. aureus SA-1199B) [µg/mL]	MIC [4] [µg/mL]	MIC [5] [µg/mL]	MIC (S. aureus ATCC 29213) [µg/mL]	MIC (S. aureus ATCC 25923) [µg/mL]	MIC (S. aureus ATCC 6538) [µg/mL]	MIC (S. aureus ATCC 9144) [µg/mL]	inhibition at 10 µM [6] [%]	inhibition at 1 µM [6] [%]	inhibition at 10 µM [7] [%]	inhibition at 1 µM [7] [%]	inhibition at 10 µM [8] [%]	inhibition at 1 µM [8] [%]	further results
CC(C)(C)OC(=O)NCC(NC(=O)c1c[nH]c2cc(Br)ccc12)c1c[nH]c2ccccc12 (centres unmarked) [Compound 3e, tert-Butyl (2-(1H-indol-3-yl)-2-(6-bromo-1H-indolyl-3-carboxamido)ethyl)carbamate]	8 (≈ 16.1 µM)	8 (≈ 16.1 µM)	128 (≈ 257 µM)	16 (≈ 32.2 µM)	8 (≈ 16.1 µM)	8 (≈ 16.1 µM)	8 (≈ 16.1 µM)	8 (≈ 16.1 µM)	32 (≈ 64.3 µM)	8 (≈ 16.1 µM)	16 (≈ 32.2 µM)	8 (≈ 16.1 µM)	8 (≈ 16.1 µM)	99 ± 1	0	92 ± 6	0	92 ± 1	2	
O=C(NC(C(=O)NCCCCO)c1c[nH]c2ccc(Br)cc12)c1c[nH]c2ccc(Br)cc12 (centres unmarked) [Compound 15, 5-Bromo-N-(1-(5-bromo-1H-indol-3-yl)-2-((4-hydroxybutyl)amino)-2-oxoethyl)-1H-indole-3-carboxamide]	> 32	32 (≈ 56.9 µM)	32 (≈ 56.9 µM)	32 (≈ 56.9 µM)	16 (≈ 28.5 µM)	32 (≈ 56.9 µM)		32 (≈ 56.9 µM)	32 (≈ 56.9 µM)	16 (≈ 28.5 µM)	32 (≈ 56.9 µM)	16 (≈ 28.5 µM)	32 (≈ 56.9 µM)							MIC (S. pneumoniae ATCC 6303): 128 µg/mL (≈ 228 µM); MIC (E. faecium CIP 54.32): > 128 µg/mL; MIC [9]: 128 µg/mL (≈ 228 µM); MIC (S. mitis CIP 103335): > 128 µg/mL; MIC (E. faecalis ATCC 29212): > 128 µg/mL; MIC [10]: 64 µg/mL (≈ 114 µM); MIC [11]: > 32 µg/mL; MIC [12]: > 32 µg/mL; MIC [13]: > 32 µg/mL; MIC [14]: > 128 µg/mL; MIC [15]: > 128 µg/mL; MIC [16]: > 32 µg/mL; MIC (S. pneumoniae ATCC 49619): 128 µg/mL (≈ 228 µM); MIC [17]: > 32 µg/mL; MIC [18]: > 128 µg/mL; MIC [19]: > 32 µg/mL
CC(C)(C)OC(=O)NCC(NC(=O)c1c[nH]c2ccccc12)c1c[nH]c2ccc(Br)cc12 (centres unmarked) [Compound 3b, tert-Butyl (2-(5-bromo-1H-indol-3-yl)-2-(1H-indole-3-carboxamido)ethyl)carbamate]	8 (≈ 16.1 µM)	8 (≈ 16.1 µM)	8 (≈ 16.1 µM)	8 (≈ 16.1 µM)	8 (≈ 16.1 µM)	8 (≈ 16.1 µM)	8 (≈ 16.1 µM)	8 (≈ 16.1 µM)	8 (≈ 16.1 µM)	8 (≈ 16.1 µM)	8 (≈ 16.1 µM)	8 (≈ 16.1 µM)	8 (≈ 16.1 µM)	41 ± 6	0	8 ± 5	7	30 ± 2	0	IC50 ([20]; first value): 15 µM; IC50 ([20]; second value): 11.2 µM
CC(NC(=O)c1c[nH]c2ccc(F)cc12)c1c[nH]c2ccc(Br)cc12 (centres unmarked) [Compound 5, N-(1-(5-bromo-1H-indol-3-yl)ethyl)-5-fluoro-1H-indole-3-carboxamide]	16 (≈ 40 µM)	16 (≈ 40 µM)	16 (≈ 40 µM)	> 32	16 (≈ 40 µM)	16 (≈ 40 µM)		16 (≈ 40 µM)	16 (≈ 40 µM)	16 (≈ 40 µM)	16 (≈ 40 µM)	16 (≈ 40 µM)	16 (≈ 40 µM)							
